{"source": "paper PMC8535176", "about": "“Efficacy of epetraborole against Mycobacterium abscessus is increased with norvaline” (PLoS Pathogens, 2021)", "assay_in_all_cases": "microbe, parasite or virus in culture", "key": {"M. tuberculosis Erdman": {"test_system": "T1, M. tuberculosis Erdman", "T1 construct": "Erdman", "set-up": "Whole-cell growth inhibition, dose-response MIC (MIC90) by resazurin microtiter assay (REMA), fluorescence read-out", "settings": "Mycobacterium tuberculosis, ERDMAN"}, "P. aeruginosa": {"test_system": "P. aeruginosa", "set-up": "Whole-cell growth inhibition, dose-response MIC (MIC90) by resazurin microtiter assay (REMA), fluorescence read-out", "settings": "Pseudomonas aeruginosa"}, "M. tuberculosis H37Rv": {"test_system": "T2, M. tuberculosis H37Rv", "T2 construct": "H37Rv", "set-up": "Whole-cell growth inhibition, dose-response MIC (MIC90) by resazurin microtiter assay (REMA), fluorescence read-out", "settings": "Mycobacterium tuberculosis, H37RV"}, "C. glutamicum": {"test_system": "C. glutamicum", "set-up": "Whole-cell growth inhibition, dose-response MIC (MIC90) by resazurin microtiter assay (REMA), fluorescence read-out", "settings": "Corynebacterium glutamicum"}, "B. cereus": {"test_system": "B. cereus", "set-up": "Whole-cell growth inhibition, dose-response MIC (MIC90) by resazurin microtiter assay (REMA), fluorescence read-out", "settings": "Bacillus cereus"}, "M. avium hominissuis": {"test_system": "M. avium hominissuis", "set-up": "Whole-cell growth inhibition, dose-response MIC (MIC90) by resazurin microtiter assay (REMA), fluorescence read-out", "settings": "Mycobacterium avium"}, "E. coli": {"test_system": "E. coli", "set-up": "Whole-cell growth inhibition, dose-response MIC (MIC90) by resazurin microtiter assay (REMA), fluorescence read-out", "settings": "Escherichia coli"}, "M. abscessus": {"test_system": "M. abscessus", "set-up": "Whole-cell growth inhibition, dose-response MIC (MIC90) by resazurin microtiter assay (REMA), fluorescence read-out", "settings": "Mycobacteroides abscessus"}, "M. avium intracellulaire": {"test_system": "M. avium intracellulaire", "set-up": "Whole-cell growth inhibition, dose-response MIC (MIC90) by resazurin microtiter assay (REMA), fluorescence read-out", "settings": "Mycobacterium avium"}, "[1]": {"test_system": "T3, Mycobacteroides abscessus subsp. abscessus MT16_1065", "T3 construct": "MT16_1065", "set-up": "species or system M. abscessus; Resazurin microtiter assay (REMA), fluorescence; MIC at 90% growth inhibition from Gompertz fit", "settings": "48 h, smooth morphotype", "protocol": "(§1) MIC values were determined using the resazurin microtiter assay (REMA). Cultures were grown to log phase (OD600 of 0.4–0.8) and diluted to OD600 of 0.005. Drugs were prepared in two-fold serial dilutions in 96-well plates with 90 μL of bacteria per well to a final volume of 100 μL. Plates were incubated at 37°C until drug-free wells were turbid (2 days for M. abscessus). Ten μL of resazurin (0.025% wt/vol) was added to each well. Once the drug-free wells turned pink (one doubling time), the fluorescence (ex/em 560nm/590nm) was measured using an Infinite F200 Tecan plate reader. Fluorescence intensities were converted to % viable cells relative to drug-free conditions and fit to the Gompertz equation using GraphPad Prism version 9. MIC values at 90% growth inhibition were determined from the nonlinear regression Gompertz equation. Next, we tested the in vitro activity of EPT against a panel of M. abscessus clinical isolates belonging to the three subspecies of the M. abscessus complex (M. abscessus, M. massiliense, and M. bolletii) with smooth and rough colony morphologies and with different drug susceptibility profiles to various antibiotics. There was no loss in activity against clinical isolates (range of 0.014–0.046 μg/mL) nor different morphologies (S2 Table). To determine the spectrum of activity of EPT, we curated a panel of various mycobacteria and representative gram-positive and gram-negative bacteria. […] Mycobacteria strains were grown in rolling [compound left out] culture at 37°C in Middlebrook 7H9 (Difco) supplemented with 10% albumin dextrose catalase (ADC), 0.2% glycerol, and 0.05% Tween 80 (7H9 complete) or on 7H10 agar plates supplemented with 10% oleic acid ADC and 0.5% glycerol at 37°C. When mentioned, the carbon source was modified from glycerol to acetate or the detergent Tween 80 was removed from the media. Bacillus cereus (clinical isolate), Corynebacterium glutamicum (ATCC 13032), Escherichia coli, and Pseudomonas aeruginosa PAO1 were grown in LB broth. HepG2 cells (ATCC HB-8065) were grown in Dulbecco’s modified Eagle’s medium (DMEM) with phenol red (from Gibco) supplemented with 10% fetal bovine serum at 37°C with 5% CO2."}, "[2]": {"test_system": "T4, Mycobacteroides abscessus subsp. massiliense MT15_1748", "T4 construct": "MT15_1748", "set-up": "species or system M. abscessus; Resazurin microtiter assay (REMA), fluorescence; MIC at 90% growth inhibition from Gompertz fit", "settings": "48 h, rough morphotype", "protocol": "as §1"}, "[3]": {"test_system": "T5, Mycobacteroides abscessus subsp. massiliense MT15_1749", "T5 construct": "MT15_1749", "set-up": "species or system M. abscessus; Resazurin microtiter assay (REMA), fluorescence; MIC at 90% growth inhibition from Gompertz fit", "settings": "48 h, rough morphotype", "protocol": "as §1"}, "[4]": {"test_system": "T6, Mycobacteroides abscessus subsp. abscessus MT16_6490", "T6 construct": "MT16_6490", "set-up": "species or system M. abscessus; Resazurin microtiter assay (REMA), fluorescence; MIC at 90% growth inhibition from Gompertz fit", "settings": "48 h, smooth morphotype", "protocol": "as §1"}, "[5]": {"test_system": "T7, Mycobacteroides abscessus subsp. bolletii Paris 167", "T7 construct": "Paris 167", "set-up": "species or system M. abscessus; Resazurin microtiter assay (REMA), fluorescence; MIC at 90% growth inhibition from Gompertz fit", "settings": "48 h, rough morphotype", "protocol": "as §1"}, "[6]": {"test_system": "T8, Mycobacteroides abscessus subsp. bolletii AV", "T8 construct": "AV", "set-up": "species or system M. abscessus; Resazurin microtiter assay (REMA), fluorescence; MIC at 90% growth inhibition from Gompertz fit", "settings": "48 h, smooth morphotype", "protocol": "as §1"}, "[7]": {"test_system": "T9, Mycobacteroides abscessus subsp. abscessus ATCC 19977", "T9 construct": "ATCC 19977", "set-up": "species or system M. abscessus; Resazurin microtiter assay (REMA), fluorescence; MIC at 90% growth inhibition from Gompertz fit", "settings": "ATCC19977, 48 h, rough morphotype", "protocol": "as §1"}}, "note": "Where two headings read alike, the source gives them in different places."}
{"smiles": "CO[C@@]1(NC(=O)Cc2cccs2)C(=O)N2C(C(=O)O)=C(COC(N)=O)CS[C@@H]21", "note": "[Cefoxitin]", "values": [{"measurement": "MIC", "setting": "M. tuberculosis Erdman; read-out: MIC (µg/mL) / CFX", "value": "> 98", "unit": "µg/mL"}, {"measurement": "MIC", "setting": "P. aeruginosa; read-out: MIC (µg/mL) / CFX", "value": "> 98", "unit": "µg/mL"}, {"measurement": "MIC", "setting": "M. tuberculosis H37Rv; read-out: MIC (µg/mL) / CFX", "value": "> 98", "unit": "µg/mL"}, {"measurement": "MIC", "setting": "C. glutamicum; read-out: MIC (µg/mL) / CFX", "value": 98, "unit": "µg/mL"}, {"measurement": "MIC", "setting": "B. cereus; read-out: MIC (µg/mL) / CFX", "value": "> 98", "unit": "µg/mL"}, {"measurement": "MIC", "setting": "M. avium hominissuis; read-out: MIC (µg/mL) / CFX", "value": 4.7, "unit": "µg/mL"}, {"measurement": "MIC", "setting": "E. coli; read-out: MIC (µg/mL) / CFX", "value": 4, "unit": "µg/mL"}, {"measurement": "MIC", "setting": "M. abscessus; read-out: MIC (µg/mL) / CFX", "value": 12, "unit": "µg/mL"}, {"measurement": "MIC", "setting": "M. avium intracellulaire; read-out: MIC (µg/mL) / CFX", "value": 0.42, "unit": "µg/mL"}, {"measurement": "MIC", "setting": "[1]; read-out: MIC CFX", "value": 13, "unit": "µg/mL"}, {"measurement": "MIC", "setting": "[2]; read-out: MIC CFX", "value": 26, "unit": "µg/mL"}, {"measurement": "MIC", "setting": "[3]; read-out: MIC CFX", "value": 16, "unit": "µg/mL"}, {"measurement": "MIC", "setting": "[4]; read-out: MIC CFX", "value": 13, "unit": "µg/mL"}, {"measurement": "MIC", "setting": "[5]; read-out: MIC CFX", "value": 16, "unit": "µg/mL"}, {"measurement": "MIC", "setting": "[6]; read-out: MIC CFX", "value": 15, "unit": "µg/mL"}]}
{"smiles": "CC[C@H]1OC(=O)[C@H](C)[C@@H](O[C@H]2C[C@@](C)(OC)[C@@H](O)[C@H](C)O2)[C@H](C)[C@@H](O[C@@H]2O[C@H](C)C[C@H](N(C)C)[C@H]2O)[C@](C)(OC)C[C@@H](C)C(=O)[C@H](C)[C@@H](O)[C@]1(C)O", "note": "[Clarithromycin]", "values": [{"measurement": "MIC", "setting": "M. tuberculosis Erdman; read-out: MIC (µg/mL) / CLR", "value": "> 1.3", "unit": "µg/mL"}, {"measurement": "MIC", "setting": "P. aeruginosa; read-out: MIC (µg/mL) / CLR", "value": "> 8.2", "unit": "µg/mL"}, {"measurement": "MIC", "setting": "M. tuberculosis H37Rv; read-out: MIC (µg/mL) / CLR", "value": "> 1.3", "unit": "µg/mL"}, {"measurement": "MIC", "setting": "C. glutamicum; read-out: MIC (µg/mL) / CLR", "value": "> 8.2", "unit": "µg/mL"}, {"measurement": "MIC", "setting": "B. cereus; read-out: MIC (µg/mL) / CLR", "value": "> 8.2", "unit": "µg/mL"}, {"measurement": "MIC", "setting": "M. avium hominissuis; read-out: MIC (µg/mL) / CLR", "value": 0.18, "unit": "µg/mL"}, {"measurement": "MIC", "setting": "E. coli; read-out: MIC (µg/mL) / CLR", "value": "> 8.2", "unit": "µg/mL"}, {"measurement": "MIC", "setting": "M. abscessus; read-out: MIC (µg/mL) / CLR", "value": 0.9, "unit": "µg/mL"}, {"measurement": "MIC", "setting": "M. avium intracellulaire; read-out: MIC (µg/mL) / CLR", "value": 0.014, "unit": "µg/mL"}, {"measurement": "MIC", "setting": "[1]; read-out: MIC CLR", "value": 3.4, "unit": "µg/mL"}, {"measurement": "MIC", "setting": "[2]; read-out: MIC CLR", "value": 0.068, "unit": "µg/mL"}, {"measurement": "MIC", "setting": "[3]; read-out: MIC CLR", "value": 0.082, "unit": "µg/mL"}, {"measurement": "MIC", "setting": "[4]; read-out: MIC CLR", "value": 2.9, "unit": "µg/mL"}, {"measurement": "MIC", "setting": "[5]; read-out: MIC CLR", "value": 2.8, "unit": "µg/mL"}, {"measurement": "MIC", "setting": "[7]; read-out: MIC CLR", "value": 0.65, "unit": "µg/mL"}, {"measurement": "MIC", "setting": "[6]; read-out: MIC CLR", "value": 0.15, "unit": "µg/mL"}]}
{"smiles": "CO[C@H]1/C=C/O[C@@]2(C)Oc3c(C)c(O)c4c(O)c(c(/C=N/N5CCN(C)CC5)c(O)c4c3C2=O)NC(=O)/C(C)=C\\C=C\\[C@H](C)[C@H](O)[C@@H](C)[C@@H](O)[C@@H](C)[C@H](OC(C)=O)[C@@H]1C", "note": "[Rifampicin]", "values": [{"measurement": "MIC", "setting": "M. tuberculosis Erdman; read-out: MIC (µg/mL) / RIF", "value": 0.0065, "unit": "µg/mL"}, {"measurement": "MIC", "setting": "P. aeruginosa; read-out: MIC (µg/mL) / RIF", "value": 15, "unit": "µg/mL"}, {"measurement": "MIC", "setting": "M. tuberculosis H37Rv; read-out: MIC (µg/mL) / RIF", "value": 0.0063, "unit": "µg/mL"}, {"measurement": "MIC", "setting": "C. glutamicum; read-out: MIC (µg/mL) / RIF", "value": "< 0.063", "unit": "µg/mL"}, {"measurement": "MIC", "setting": "B. cereus; read-out: MIC (µg/mL) / RIF", "value": "< 0.063", "unit": "µg/mL"}, {"measurement": "MIC", "setting": "M. avium hominissuis; read-out: MIC (µg/mL) / RIF", "value": 0.063, "unit": "µg/mL"}, {"measurement": "MIC", "setting": "E. coli; read-out: MIC (µg/mL) / RIF", "value": 3.9, "unit": "µg/mL"}, {"measurement": "MIC", "setting": "M. abscessus; read-out: MIC (µg/mL) / RIF", "value": 9.1, "unit": "µg/mL"}, {"measurement": "MIC", "setting": "M. avium intracellulaire; read-out: MIC (µg/mL) / RIF", "value": 0.063, "unit": "µg/mL"}, {"measurement": "MIC", "setting": "[1]; read-out: MIC RIF", "value": "> 24", "unit": "µg/mL"}, {"measurement": "MIC", "setting": "[3]; read-out: MIC RIF", "value": 6.7, "unit": "µg/mL"}, {"measurement": "MIC", "setting": "[4]; read-out: MIC RIF", "value": "> 24", "unit": "µg/mL"}, {"measurement": "MIC", "setting": "[5]; read-out: MIC RIF", "value": 7.4, "unit": "µg/mL"}, {"measurement": "MIC", "setting": "[7]; read-out: MIC RIF", "value": 1.8, "unit": "µg/mL"}, {"measurement": "MIC", "setting": "[6]; read-out: MIC RIF", "value": "> 24", "unit": "µg/mL"}]}
